Entries after “also recorded” stand apart in the source; their conditions may differ.
Key:
[1] = system: DU-145, human prostate cancer cell line; assay: Intracellular calcium measurement (fluo-3, confocal microscopy); assay type: cell-based; conditions: for continuous increase of [Ca2+]i by KCl treatment: pretreatment with antagonist before KCl, FIG. 2B-D
Description: DU-145, human prostate cancer cell line, was pretreated with a regulator of intracellular calcium (Ca^2+) signaling second messenger, and the intracellular calcium signaling pattern thereof was analyzed. The concentration of intracellular calcium was measured by the following method: A cell suspension pretreated with a fluo-3 (molecular probe, USA) was titrated in a confocal dish (SPL, Seoul, Korea) coated with poly-L-lysine (Sigma-Aldrich, USA) and reacted for 20 minutes in a CO2 incubator to attach the cells. Then, the intracellular calcium amount was measured by a confocal microscopy system of Nikon Co, using the method of Tsien et al. (Tsien et al., Nature 295, 68-71 (1982)), and the results are illustrated in FIG. 2.

mouse oocytes = assay: In vitro fertilization test; assay type: cell-based; conditions: sperms fused with prostasomes obtained with or without pretreatment by regulator, reacted with oocytes, 36 hours; FIG. 6
Description: In order to perform the in vitro fertilization test, the method of Ren et al. (Ren et al., Nature 413, 603-609 (2001)) was modified and used. A 10 to 12-week-old female mouse was injected with pregnant mare serum gonadotropin (PMSG) (5 IU; Sigma-Aldrich). After 48 hours, the mouse was injected with human chorionic gonadotropin (hCG) (5 IU; Sigma-Aldrich). After 14 hours of the last injection, uterine tubes were removed and perfused with IVF medium (Medicult, USA), and flown oocytes were collected using a low magnification microscope.
The collected oocytes were resuspended in IVF medium and were cultured with prostasomes which were obtained in the presence or absence of the regulator of the intracellular calcium signaling second messenger, causing fertilization reaction. The heated mineral oil was overlaid on top of the medium to block the outside air. After 36 hours of the culture, the total number of oocytes contained in the culture medium was counted under a microscope, and cells above the two-cell stage were counted. The fertilization rate was calculated using the following formula. The case that the sperms that had undergone the same fusion process without prostasome treatment were cultured with about 15 oocytes was referred to as 100%. The results are illustrated in FIG. 6. […]

[2] = system: DU-145, human prostate cancer cell line; assay: Western blotting of prostasome (exosomal) marker proteins in prostasomes from culture supernatant; assay type: cell-based
Description: Specifically, the prostate cancer cell line DU-145 were cultured in DMEM (GIBCO/Invitrogen, USA) supplemented with 10% exosome-free FBS (GIBCO/Invitrogen, USA) and 1% antibiotics-antimycotic (GIBCO/Invitrogen, USA) under the conditions of 37° C. and 5% CO2. The cell culture was collected and centrifuged at 3,000 rpm for 30 minutes to separate the supernatant. The supernatant was centrifuged at 15,000×g for 20 minutes using a Beckman's high-speed centrifuge, and the supernatant was separated again. The supernatant was centrifuged at 105,000×g for 2 hours using a high-speed centrifuge to obtain a precipitate. The collected precipitate was resuspended in the same buffer. The first eluted fraction was collected using sephadex G-200 (Sigma, USA), centrifuged again, and then suspended for use. 20 μg of protein was inactivated in 5× sample buffer at 100° C. for 5 minutes and then electrophoresed on a 10% SDS polyacrylamide gel. The separated proteins were transferred to a PVDF membrane and blocked in 2% BSA for 90 minutes. The respective HSP70, β-actin, Rab5 and LAMP1 antibodies were placed overnight at 4° C. in a ratio of 1:1,000 and then washed three times for 10 minutes with tris-buffered saline Tween-20 (TBST) buffer. The secondary antibodies were diluted at a ratio of 1:1,000 and allowed to adhere at room temperature for 2 hours. The membranes washed three times for 15 minutes with TBST buffer were treated with ECL (Bio-Rad, USA), and the amount of the protein expression was measured with LAS-500 (GE Healthcare Life Science, USA). DU-145, prostate cancer cell line, was treated with KCl, which induces cell membrane depolarization. Western blotting was performed to identify changes in prostasome-related protein expression. Specifically, the cells were cultured with KCl at various concentrations (0, 5, 10, 25, 50 and 100 mM) for 1 hour, and prostasomes were prepared from the culture supernatant by the method described in Experimental Example 1 and subjected to Western blotting. Further, cells were cultured with 25 mM KCl for various times (0, 10, 30, 60, 120 and 180 minutes) and subjected to Western blotting. The results are illustrated in FIG. 1. Furthermore, DU-145, human prostate cancer cell line was pretreated with a regulator of intracellular calcium (Ca^2+) signaling second messenger to analyze the change in the prostasome-related protein expression. Specifically, DU-145 cells were treated with various antagonists (regulator of intracellular calcium signaling second messenger) such as 100 μg/ml heparin (selective IP3 receptor inhibitor), 50 μM 8-Br-cADPR (antagonist of cADPR) and 1 μM NED-19 (antagonist of NAADP) together with 25 mM KCl. Prostasomes were prepared from the culture supernatant by the method described in Experimental Example 1, and Western blotting was performed. All antagonists were preincubated for 30 minutes before KCl treatment, and the cells were cultured for an additional 1 hour after KCl treatment. The results are illustrated in FIG. 3. Capsaicin (Sigma Aldrich, Mo., USA), which induces intracellular calcium (Ca^2+) signaling, was used to confirm the change in prostasome-related protein expression according to capsaicin treatment in DU-145, human prostate cancer cell line by Western blot. Specifically, the cells were cultured with capsaicin at various concentrations (0, 12.5, 25, 50, 100 and 200 μM) for 3 hours, and prostasomes were prepared from the culture supernatant by the method described in Example 2 and subjected to Western blotting, The cells were also cultured with 50 μM capsaicin for various times (0, 10, 30, 60, […], 120 and 180 minutes) and subjected to Western blotting. The results are illustrated in FIG. 4.

mouse sperms = assay: Sperm motility test (CASA) of sperms fused with prostasomes from PPECs; assay type: cell-based; conditions: sperms fused with PPECs-derived prostasomes (with or without pretreatment of the prostate cells), vs no fusion; FIG. 5
Description: The prostasomes of the mouse were obtained by incising the mouse abdominal cavity and obtaining the prostate under the bladder through microsurgery (Drost et al, 2016, Nat Protoc. 11(2): 347-358). Later, the effluent from the prostate gland was collected from the prostate and diluted using BWW (Bigger, Whitten, arid Whittingham) medium [10 mM Hepes, 20 mM sodium lactate, 5 mM glucose, 0.25 mM sodium pyruvate, penicillin G (80 mg/L), streptomycin sulfate (50 mg/L), 95 mM NaCl, 4.8 mM KCl, 1.3 mM CaCl2, 1.2 mM KH2PO4, and 1.2 mM MgSO4 in 25 mM NaHCO3 buffer, pH 7.4]). The supernatant was used to collect prostasomes by the same method as described above.
To collect mouse sperms which are not fused with prostasomes, the tail epididymis of a male mouse was surgically removed, and blood and adipose tissue were removed using ophthalmic scissors. The epididymis was punctured with a 30 gauge sterilized needle and pinched by tweezers to release a large number of sperms. […]
Specifically, the isolated sperms were diluted with a weak alkaline buffer with 0.32 M sucrose or binding buffer 150 mM NaCl, 1 mM CaCl2, 1 mM MgCl2, 5 mM glucose with 2 mM Hepes (pH 8.0)/20 mM MES (pH 5.0, binding buffer). […] The sperm motility rate was measured using a computer assisted sperm analysis (CASA) device (IVOS, Hamilton Thorne Biosciences, USA). […]

C57BL/6 mice = assay: In vivo fertilization test in mice (number of pups); set-up: species or system mouse; conditions: male C57BL/6 mice, 50 mg/kg intraperitoneally twice daily for 2 weeks, then mating 1:1 for 48 hours; FIG. 7
Description: The number of pups was measured in the mouse breeding process to confirm the increase of reproductive ability due to the promotion of the prostasome secretion (Nambu University's animal test approval number #201604), 7-week-old male C57BL/6 mice were randomly assigned into three groups and adapted to the breeding conditions. The groups were divided into the normal untreated group, the solvent-[…] group, and the capsaicin-treated group. Capsaicin was prepared at a high concentration (100-fold) in DMSO, then diluted in phosphate buffered saline (PBS, pH 7.2), and used as an injection. In the solvent-treated group, PBS (200 μl) diluted with the same volume of DMSO was administered. Twice daily capsaicin (50 mg/kg) and placebo were intraperitoneally injected into each experimental group for 2 weeks. Then, each mouse was caged with a female c57BL/6 mouse adapted for the same breeding condition, mating them at a ratio of 1:1 for 48 hours. The mating started at 6 pm, and the mating success was evaluated by confirming that the plaque was formed at the vaginal entrance at 9:00 am, but it was maintained for 48 hours considering the possibility of premature dropping. Then, only the female was separated from each cage, and the separate breeding was performed for each group. After the gestation period (about 21 days), the number of pups was counted. […]

Molecule: N=c1c2nc(Br)n3c2ncn1C1OC(COP(=O)(O)OP(=O)(O)OCC2OC3C(O)C2O)C(O)C1O (centres unmarked) [8-br-cADPR, 8-Br-cADPR]
- continuous increase of [Ca2+]i by KCl treatment [1]: suppressed

Molecule: C1CCC[C@H]2CCCN3CC[C@@H](CCCCCC[C@@H]4CCCN5CC[C@@H](CC1)O[C@@H]45)O[C@@H]23 [Xestospongin C]
- fertility (fertilization rate) (mouse oocytes): reduced to be similar to that of the negative control
- continuous increase of [Ca2+]i by KCl treatment [1]: suppressed

Molecule: COc1ccc([C@H]2N[C@H](C(=O)O)Cc3c2[nH]c2ccccc32)cc1CN1CCN(c2ccccc2F)CC1 [Ned-19]
- continuous increase of [Ca2+]i by KCl treatment [1]: not suppressed
- HSP70 expression (KCl-induced) with antagonist ([2]; 100 μg/ml heparin, 50 μM 8-Br-cADPR or 1 μM NED-19 preincubated 30 minutes, then 25 mM KCl 1 hour, FIG. 3): did not show the inhibitory effect

Molecule: O=P(O)(O)O[C@@H]1[C@H](O)[C@H](O)[C@@H](OP(=O)(O)O)[C@H](OP(=O)(O)O)[C@H]1O [D-myo-IP3, D-myo-Inositol 1,4,5-triphosphate]
- sperm motility rate (mouse sperms): doubling; also recorded: doubled

Molecule: [Cl-].[K+] [KCl]
- intracellular calcium ([Ca2+]) ([1]; 120 μM KCl, FIG. 2A): rapidly increased
- HSP70 expression ([2]; 25 mM KCl alone without an antagonist, 1 hour, FIG. 3): increased
- protein expression of HSP70 and LAMP1 ([2]; 25 mM KCl for 0, 10, 30, 60, 120 and 180 minutes, FIG. 1B): increased in a time-dependent manner
- protein expression of HSP70, Rab5 and LAMP1 (exosomal markers) ([2]; KCl 0, 5, 10, 25, 50 and 100 mM for 1 hour, FIG. 1A): increased in a concentration-dependent manner

Molecule: COc1cc(CNC(=O)CCCC/C=C/C(C)C)ccc1O [capsaicin]
- number of pups (C57BL/6 mice): increased
- protein expression of HSP70, LAMP1 and Rab5 ([2]; 50 μM capsaicin for 0-180 minutes, FIG. 4B): increased in a time-dependent manner
- protein expression of HSP70 ([2]; capsaicin 0, 12.5, 25, 50, 100 and 200 μM for 3 hours, FIG. 4A): increased in a concentration-dependent manner

Molecule: heparin
- fertility (fertilization rate) (mouse oocytes): reduced to be similar to that of the negative control

Source: patent US20190298745A1, “COMPOSITION FOR CONTROLLING SECRETION OF PROSTASOMES AND USE THEREOF” (Industrial Cooperation Foundation Chonbuk National, priority 2018, published 2019)
